Results: patent EP0256847B1, “Oxytocin and vasopressin antagonists” (Merck & Co., Inc., priority 1986, dated 1988)
*1 amine or outer side, *2 acyl side, *3 side chain or, on linkers, in order; H or OH if unused. Where a SMILES comes first, the peptide text is derived from it. [ ]: non-standard residue; d: D form. ξ: configuration not given here. X2 = O=C([C@@H]1CCCNN1[*:1])[*:2]; ξN(OH)Ile(3ξ) = CCC(C)C(NO)C(=O)O; X1 = O=C([C@H]1CCCNN1[*:1])[*:2]; dNMeF = CN[C@H](Cc1ccccc1)C(=O)O; NMeF = CN[CH](Cc1ccccc1)C(=O)O; X3 = O=C(C1CCCNN1[*:1])[*:2]

Target: oxytocin receptor
Assay: [³H]Oxytocin binding assay, crude membrane preparation of rat uterus
Settings: concentration of test compound to inhibit [³H]oxytocin binding by 50%; rat uterus membranes; read-out: IC₅₀ [³H]OT (uterus)
Text: Oxytocin receptors have been identified in mammalian uterine tissue through the use of in vitro radioligand binding assays. These receptor binding sites mediate the contractile response of the uterine myometrium to oxytocin. […] The assay uses a crude membrane preparation of rat uterus as the source of oxytocin receptors. […]

| Structure (SMILES) | IC50 [nM] |
| --- | --- |
| CC[C@H](C)[C@@H]1NC(=O)[C@@H](Cc2ccccc2)NC(=O)[C@@H]2CCCN2C(=O)[C@@H](Cc2ccccc2)N(C)C(=O)[C@@H]2CCCNN2C(=O)[C@H]2CCCNN2C1=O [Example 9] (cyclo([X1][X2][dNMeF]P[dF]I)) | 170 ± 15 |
| CCC(C)C1C(=O)N2NCCCC2C(=O)N2NCCCC2C(=O)N(C)C(Cc2ccccc2)C(=O)N2CCCC2C(=O)NC(Cc2ccccc2)C(=O)N1O (centres unmarked) [Formula I] (cyclo([ξN(OH)Ile(3ξ)][X3][X3][NMeF]PF); configuration not given here) | 370 ± 70 |
